The nature of the first series: Compound was tested for their chelating potential (free ligand) determined by distribution coefficient method. It counts as ADME. The settings on record: octanol/water.
For `CCCCCn1ccc(=O)c(O)c1C`, the “mean log D” value turned out to be 1.24.

For the compound `CCCCCCn1ccc(=O)c(O)c1C`, the “mean log D” value was found to be 1.9.

The same series, now with this note: octanol/water; read-out: mean log D.
With `Cc1cc(=O)c(O)co1`, the logD is -0.59.

Take `CCOCc1cc(=O)c(O)co1`: the logD was -0.38.

On to `CCCCc1oc(C)cc(=O)c1O`, for which the logD is 1.92. Regarding `COCc1cc(=O)c(O)co1`, the logD was -0.62. Consider `NCCn1ccc(=O)c(O)c1`, for which the logD is -0.66. On to `Cc1cc(=O)c(O)c(C)o1`, for which the logD stood at 0.44. Still for that read-out and setting: for `CCCc1oc(C)cc(=O)c1O` the value was 1.4; for `CCn1cccc(O)c1=O`, 0.2; for `CCc1oc(C)cc(=O)c1O`, 1.07. `CCCCOCc1cc(=O)c(O)co1`: the logD was found to be 0.78.

As for `CCCOCc1cc(=O)c(O)co1`, the logD was 0.3.

In the case of `CCCCn1cccc(O)c1=O`, the logD stood at 1.18.

As for `CCCn1cccc(O)c1=O`, the logD was determined as 0.69. Same read-out and setting: for `Cn1cccc(O)c1=O` the value was -0.28; for `CCCCn1ccc(=O)c(O)c1C`, 0.71; for `O=c1ccocc1O`, -0.92. Still for that read-out and setting: for `CCc1occc(=O)c1O` [E637] the value was 0.63; for `Cc1occc(=O)c1O` [MALTOL], 0.05; for `Oc1cccc2cccnc12` [OXYQUINOLINE], 1.87. On the same count and under the same terms, for `O=c1cccccc1O` [TROPOLONE] the value was -0.14.

The values above are taken from ChEMBL document CHEMBL1129080, “Synthesis, physicochemical properties, and biological evaluation of hydroxypyranones and hydroxypyridinones: novel bidentate ligands for cell-labeling” (J Med Chem, 1996).
